From ChEMBL document CHEMBL2203172, “Synthesis of chiral hydroxylated enones as potential anti-tumor agents” (Bioorg Med Chem Lett, 2012)

Legend:
WRL68 = assay: Cytotoxicity against human WRL68 cells; type: cell-based
HepG2 = assay: Cytotoxicity against human HepG2 cells; type: functional, cell-based
HL-60 = assay: Cytotoxicity against human HL60 cells; type: functional, cell-based

SMILES | IC50 (WRL68) | IC50 (HepG2) | IC50 (HL-60)
CO[C@H]1C=C(COC(C)=O)C(=O)[C@H](O)[C@H]1O | > 200 µM | > 50 µM | > 50 µM
CCCCCCCO[C@H]1C=C(COC(C)=O)C(=O)[C@H](O)[C@H]1O | 152 µM | > 50 µM | 39.8 µM
CC(=O)OCC1=C[C@H](OCc2ccc3ccccc3c2)[C@H](O)[C@@H](O)C1=O | > 200 µM | > 50 µM | > 50 µM
CC(=O)OCC1=C[C@H](OCc2ccc(-c3ccccc3)cc2)[C@H](O)[C@@H](O)C1=O | 71.3 µM | – | –
CCCO[C@H]1C=C(COC(C)=O)C(=O)[C@H](O)[C@H]1O | 191 µM | 33.6 µM | 10.1 µM
CCCCCO[C@H]1C=C(COC(C)=O)C(=O)[C@H](O)[C@H]1O | 169 µM | 16.1 µM | 3.1 µM
CCCCCO[C@@H]1C=C(COC(C)=O)C(=O)[C@H](O)[C@H]1O | 48.3 µM | 10.1 µM | 2.6 µM
OCC1=C[C@H](O)[C@H](O)[C@@H](O)[C@@H]1O [STREPTOL] | > 200 µM | > 50 µM | > 50 µM
